Data taken from ChEMBL document CHEMBL3872251, “Computational approach for the assessment of inhibitory potency against beta-amyloid aggregation” (Bioorg Med Chem Lett, 2017).

System: not listed separately
Assay: Inhibition of Tg2576 mouse amyloid beta40 aggregation measured after 3 days by ELISA

| IC50 | SMILES |
| --- | --- |
| 1000 nM | COc1cc(/C=C/C(=O)CC(=O)/C=C/c2ccc(O)c(OC)c2)ccc1O [CURCUMIN] |

Organism: Homo sapiens
Assay: Inhibition of amyloid beta (17 to 42) (unknown origin) aggregation at 10 uM by thioflavin T-based fluorimetric assay

| SMILES | inhibition |
| --- | --- |
| c1ccc(CN2CCC(NCCCCCCn3ccc4ccccc43)CC2)cc1 | 56% |
| O=C1c2ccccc2C(=O)N1CCCCCNCc1ccccc1 | 10% |

The next lines start with the values.

| inhibition | SMILES |
| --- | --- |
| 10% | O=C1c2ccccc2C(=O)N1CCCNC1CCN(Cc2ccccc2)CC1 |
| 0% | CCN(CC)CCCCCCN1C(=O)c2ccccc2C1=O |
| 39.4% | CCN(CC)CCCCCCCN1C(=O)c2ccccc2C1=O |
